# In US20190111137A1, “METHODS FOR ANTAGONISTS OF A NON-SELECTIVE CATION CHANNEL IN NEURAL CELLS” (University of Maryland, Baltimore, priority 2007, published 2019):
# “And” between values parts separate entries of the source, which are not always exact repeats. Equal values may be shown once. “Also recorded” adds a separate entry of the source.
# Tests used:
# [1] = test system: rodent models of ischemic stroke; details: cited from earlier work
# [2] = test system: rat model of contusion SCI; experiment: Rat model of unilateral cervical spinal cord injury (SCI); format: in vivo; details: 24 h post-SCI
# reactive astrocytes = details: cells exposed to Na azide to deplete ATP; cited from earlier work
# TRPM4 channel = details: read-out: glibenclamide block (EC50); cited from earlier work
# [3] = test system: rat model of contusion SCI; details: as reported (Simard et al., 2007); cited from earlier work
# [4] = constant infusion 75-200 ng/h; cited from earlier work
# TRPM4 = TRPM4 protein in bEnd.3 cells after 6-h exposure to TNFα (Western blot); format: cell-based, murine; details: 20 ng/ml
# Protocol: TNFα causes up-regulation NCCa-ATP (putative TRPM4) channel in bEnd.3. In certain aspects of the invention, injury leads to NFκB activation, such as SCI, and can result in up-regulation of functional TRPM4 channels. Murine CNS microvascular endothelial cells (bEnd.3, ATTC, Rockville, Md.) were studied under control conditions and after 6-h exposure to the pro-inflammatory cytokine, TNFα (20 ng/ml), which activates NFκB. Cultures were immunolabeled for TRPM4 and TRPM5, the only 2 molecularly identified non-selective cation channels with exclusive monovalent conductivity. […] Immunolabeling for TRPM5 was negative. Western blots confirmed robust up-regulation of TRPM4 (3-fold increase, FIGS. 19C,19D).
Molecule,reduction of mortality ([1]; massive ischemic stroke with malignant cerebral edema),"reduction of cerebral edema (excess water) ([1]; massive ischemic stroke with malignant cerebral edema, low-dose, post-ischemic)",reduction of lesion volume ([1]; stroke induced by thromboemboli with delayed spontaneous reperfusion),TRPM4 expression in cord (immunolabeling) [2],blebbing associated with cytotoxic edema (reactive astrocytes),membrane depolarization (reactive astrocytes),necrotic cell death (reactive astrocytes),EC50 (TRPM4 channel),neurological function [3],progressive hemorrhagic necrosis [3],tissue loss [3],predicted serum concentration [4],up-regulation of TRPM4 (Western blots) (TRPM4)
COc1ccc(Cl)cc1C(=O)NCCc1ccc(S(=O)(=O)NC(=O)NC2CCCCC2)cc1 [glibenclamide],half,half,half,significantly reduced,significantly reduces blebbing,blocks membrane depolarization,significantly reduces necrotic cell death,10 to 100 µM,significantly improves neurological outcome; also recorded: improves neurological function,significantly reduces progressive hemorrhagic necrosis,significantly reduces,1-3 ng/ml and 2-6 nM,–
TNFα,–,–,–,–,–,–,–,–,–,–,–,–,3 fold
